{"source": "patent US20210093730A1", "about": "“BIOMARKERS FOR ANTIBODY-DRUG CONJUGATE MONOTHERAPY OR COMBINATION THERAPY” (Immunomedics, Inc., priority 2019, published 2021)", "key": {"[1]": {"test_system": "platinum-resistant urothelial carcinoma", "assay": "Clinical trial of sacituzumab govitecan in 6 patients with metastatic platinum-resistant urothelial carcinoma (PRUC)", "procedure": "Response was assessed using the Response Evaluation Criteria in Solid Tumors, version 1.1."}, "[2]": {"test_system": "metastatic small-cell lung cancer", "text": "Previous therapy had to be completed at least 4 weeks before enrollment.\nTreatment was continued until disease progression, initiation of alternative anticancer therapy, unacceptable toxicity, or withdrawal of consent.\nThe primary endpoint was the proportion of patients with a confirmed objective response, assessed approximately every 8 weeks until disease progression, by each institution's radiology group or a contracted local radiology service. […] Partial (PR) or complete responses (CR) required confirmation within 4 to 6 weeks after the initial response. Clinical benefit rate (CBR) is defined as those patients with an objective response plus stable disease (SD)≥4 months. Survival was monitored every 3 months until death or withdrawal of consent.\nSafety evaluations were conducted during scheduled visits or more frequently if warranted.\nThe frequency and severity of adverse events (AEs) were defined by MedDRA Preferred Term and System Organ Class (SOC) version 10, with severity assessed by NCI-CTCAE v4.03.\nThe protocol provided that objective response rates (ORR) were determined for patients who received ≥2 doses (1 cycle) and had their initial 8-week CT assessment. Duration of response is defined in accordance to RECIST 1.1 criteria, with those having an objective response marked from time of the first evidence of response until progression, while stable disease duration is marked from the start of treatment until progression. PFS and OS were defined from the start of treatment until an objective assessment of progression was determined (PFS) or death (OS)."}, "[3]": {"test_system": "metastatic triple-negative breast cancer (TNBC)", "conditions": "second line or later; cited from earlier work"}, "[4]": {"test_system": "metastatic urothelial cancer", "conditions": "cited from earlier work"}, "[5]": {"conditions": "SG given as >3 line, no prior topotecan/irinotecan (N = 9)"}, "[6]": {"conditions": "SG given as >3 line, prior topotecan/irinotecan (N = 15)"}, "[7]": {"conditions": "patients resistant (N = 19) to 1st line"}, "[8]": {"conditions": "patients sensitive (N = 24) to 1st line"}}, "note": "Where “and” joins values, the source holds several entries; their conditions need not be identical. Equal entries are not always repeated. Where two headings read alike, the source gives them in different places.", "data": [{"substance": "sacituzumab govitecan", "values": [{"measurement": "grade 4 non-hematologic toxicities", "setting": "[1]; 6 patients", "value": "No grade 4 non-hematologic toxicities were observed"}, {"measurement": "tolerability", "setting": "[1]; 6 patients", "value": "generally well tolerated"}, {"measurement": "patients with a clinically significant response", "setting": "[1]; of 6 patients", "value": 3, "unit": "patients"}, {"measurement": "patients with grade 3 toxicities (flank pain and bacteremia)", "setting": "[1]; of 6 patients", "value": "Two"}, {"measurement": "patients with progressive disease", "setting": "[1]; of 6 patients", "value": 3, "unit": "patients"}, {"measurement": "patients with partial response", "setting": "[1]; of 6 patients, RECIST 1.1", "value": "Two"}, {"measurement": "reduction in target lesions, patient with progressive disease because of a new lesion", "setting": "[1]; one patient", "value": 12, "unit": "%"}, {"measurement": "reduction in target lesions, patient with stable disease", "setting": "[1]; one patient", "value": 28, "unit": "%"}, {"measurement": "reduction in target lesions, best responder", "setting": "[1]; partial response, including liver metastases", "value": 38, "unit": "%"}, {"measurement": "confirmed PR", "setting": "[2]; 19 patients resistant to first-line platinum", "value": 16, "unit": "%"}, {"measurement": "confirmed PR", "setting": "[2]; 24 patients sensitive to first-line platinum", "value": 17, "unit": "%"}, {"measurement": "PD, %", "setting": "[2]; 43 assessable patients", "value": "(35%)"}, {"measurement": "stable disease including unconfirmed PR", "setting": "[2]; 43 assessable patients (21 patients)", "value": 49, "unit": "%"}, {"measurement": "treatment-related deaths", "setting": "[2]; 53 patients", "value": "No treatment-related deaths were observed"}, {"measurement": "OS, seven confirmed PR patients", "setting": "[2]; 95% CI 6.2, 20.9", "value": 9.2, "unit": "months"}, {"measurement": "OS, ten patients with SD >=4 months", "setting": "[2]; 95% CI 7.5, 22.4", "value": 8.3, "unit": "months"}, {"measurement": "median PFS, confirmed PR group", "setting": "[2]; 95% CI 7.6, 21.9", "value": 7.9, "unit": "months"}, {"measurement": "Duration of confirmed objective response, median", "setting": "[2]; Kaplan-Meier, 95% CI 3.6, 19.9", "value": 5.7, "unit": "months"}, {"measurement": "Clinical benefit rate (PR + SD >= 4 months), %", "setting": "[2]; SG as >=3 line (N = 24)", "value": "(38%)"}, {"measurement": "OS median", "setting": "[2]; SG as >=3 line (N = 24)", "value": 7.0, "unit": "months"}, {"measurement": "PFS median", "setting": "[2]; SG as >=3 line (N = 24)", "value": 3.7, "unit": "months"}, {"measurement": "Clinical benefit rate (PR + SD >= 4 months), %", "setting": "[2]; SG as second line (N = 19)", "value": "(37%)"}, {"measurement": "OS median", "setting": "[2]; SG as second line (N = 19)", "value": 8.1, "unit": "months"}, {"measurement": "PFS median", "setting": "[2]; SG as second line (N = 19)", "value": 3.6, "unit": "months"}, {"measurement": "Clinical benefit rate (PR + SD >= 4 months), %", "setting": "[2]; [5]", "value": "(33%)"}, {"measurement": "OS median", "setting": "[2]; [5]", "value": 5.5, "unit": "months"}, {"measurement": "PFS median", "setting": "[2]; [5]", "value": 3.7, "unit": "months"}, {"measurement": "Clinical benefit rate (PR + SD >= 4 months), %", "setting": "[2]; [6]", "value": "(40%)"}, {"measurement": "OS median", "setting": "[2]; [6]", "value": 8.8, "unit": "months"}, {"measurement": "PFS median", "setting": "[2]; [6]", "value": "3.8 months and 3.6 months"}, {"measurement": "grade 3 or 4 anemia", "setting": "[2]; human, in vivo", "value": 8, "unit": "%"}, {"measurement": "grade 3 or 4 diarrhea", "setting": "[2]; human, in vivo", "value": 9, "unit": "%"}, {"measurement": "grade 3 or 4 fatigue", "setting": "[2]; human, in vivo", "value": 13, "unit": "%"}, {"measurement": "grade 3 or 4 hyponatremia", "setting": "[2]; human, in vivo", "value": 8, "unit": "%"}, {"measurement": "grade 3 or 4 increased alkaline phosphatase", "setting": "[2]; human, in vivo", "value": 8, "unit": "%"}, {"measurement": "grade 3 or 4 neutropenia", "setting": "[2]; human, in vivo", "value": 34, "unit": "%"}, {"measurement": "infusion-related reactions", "setting": "[2]; human, in vivo", "value": "No infusion-related reactions were reported"}, {"measurement": "patients with dose reduction", "setting": "[2]; human, in vivo", "value": 13, "unit": "%"}, {"measurement": "Overall survival, median", "setting": "[2]; intention-to-treat N = 53", "value": 7.0, "unit": "months"}, {"measurement": "Progression-free survival, median", "setting": "[2]; intention-to-treat N = 53", "value": 3.6, "unit": "months"}, {"measurement": "duration of SD, patient with 17% tumor shrinkage", "setting": "[2]; one patient with prior CPI", "value": 8.7, "unit": "months"}, {"measurement": "duration of SD, patient with no change in tumor size", "setting": "[2]; one patient with prior CPI", "value": 3.7, "unit": "months"}, {"measurement": "tumor shrinkage, patient with SD", "setting": "[2]; one patient with prior CPI", "value": 17, "unit": "%"}, {"measurement": "tumor shrinkage on first assessment, patient with unconfirmed PR", "setting": "[2]; one patient with prior checkpoint inhibitor (CPI)", "value": 54, "unit": "%"}, {"measurement": "Clinical benefit rate (PR + SD >= 4 months), %", "setting": "[2]; [7]", "value": "(26%)"}, {"measurement": "OS median", "setting": "[2]; [7]", "value": 6.2, "unit": "months"}, {"measurement": "PFS median", "setting": "[2]; [7]", "value": 3.6, "unit": "months"}, {"measurement": "Clinical benefit rate (PR + SD >= 4 months), %", "setting": "[2]; [8]", "value": "(50%)"}, {"measurement": "OS median", "setting": "[2]; [8]", "value": 8.3, "unit": "months"}, {"measurement": "PFS median", "setting": "[2]; [8]", "value": 3.8, "unit": "months"}, {"measurement": "PR", "setting": "[2]; second-line setting (3/19)", "value": 16, "unit": "%"}, {"measurement": "median time to response", "setting": "[2]; seven confirmed PR, range 1.8 to 3.6", "value": 2.0, "unit": "months"}, {"measurement": "confirmed PR", "setting": "[2]; starting dose 8 mg/kg, 13 patients", "value": 8, "unit": "%"}, {"measurement": "CBR", "setting": "[2]; starting dose 10 mg/kg (14/30)", "value": 47, "unit": "%"}, {"measurement": "confirmed PR", "setting": "[2]; starting dose 10 mg/kg (N = 30)", "value": 20, "unit": "%"}, {"measurement": "Kaplan-Meier-derived median duration of SD", "setting": "[2]; ten patients with SD >=4 months, 95% CI 5.2, 9.7", "value": 5.6, "unit": "months"}, {"measurement": "confirmed PR", "setting": "[2]; third or higher line (N = 24)", "value": 16, "unit": "%"}, {"measurement": "median progression-free survival (PFS)", "setting": "[3]", "value": 5.5, "unit": "months"}, {"measurement": "overall survival (OS)", "setting": "[3]", "value": 13.0, "unit": "months"}, {"measurement": "response rate", "setting": "[3]", "value": 33.3, "unit": "%"}, {"measurement": "CR (complete response)", "setting": "[4]; 25 assessable patients", "value": 1, "unit": "patients"}, {"measurement": "ORR", "setting": "[4]; 25 assessable patients", "value": 36, "unit": "%"}, {"measurement": "PR (partial response)", "setting": "[4]; 25 assessable patients", "value": 8, "unit": "patients"}, {"measurement": "ORR, 1 line of prior chemotherapy", "setting": "[4]; in vivo", "value": 53.8, "unit": "%"}, {"measurement": "ORR, two or more prior therapies", "setting": "[4]; in vivo", "value": 16.7, "unit": "%"}, {"measurement": "median PFS", "setting": "[4]; in vivo", "value": 7.2, "unit": "months"}]}]}
